# Results taken from patent US7608416B2, “Targeting mPGES-1 as a treatment for inflammation which avoids cardiovascular risk” (The Trustees of the University of Pennsylvania, priority 2004, dated 2009).
# Experiments:
# mice [1] = assay: Collagen induced platelet consumption; format: in vivo, mouse; conditions: WTs, PGHS-2 Y385F and PGHS-2 KO mice, 2 min after i.v. collagen plus epinephrine
# Protocol: (ii) Collagen induced platelet consumption: Briefly, mice (8 weeks old) were weighed and anesthetized with sodium pentobarbital (80 mg/kg). 100 μl of a mixture of collagen (250 μg/ml) and epinephrine (15 μg/ml) in 0.9% NaCl was injected rapidly into the tail vein. […] After thorough mixing, platelets were counted by automated multispecies hematology analyzers (CDC Technologies), as previously described (Gresele et al, 1990, Thromb. Haemost. 64:80-6).
# [2] = tested on: PGI2 biosynthesis (urinary 2,3-dinor 6-keto PGF1α, PGIM); assay: Urinary PGIM (2,3-dinor 6-keto PGF1α) excretion, 24 h urine, GC/MS; format: in vivo, mouse; conditions: DFU, WT male mice, before vs after administration (FIG. 2)
# Protocol: Eicosanoid analyses: Urinary TxM and PGIM were measured in twenty four hour urines collected in metabolic cages. After extraction and purification by thin layer chromatography, they were analyzed by a stable isotope dilution reverse phase (C18) HPLC/tandem mass spectrometry assay and gas chromatography/mass spectrometry, respectively, as previously described (Egan et al., 2005, Circulation 111: 334-242).
# The relative contribution of the PGHS enzymes, PGHS-1 and PGHS-2, to the biosynthesis of PGI2 and TxA2 was assessed by measuring urinary 2,3-dinor 6-keto PGF1α (PGIM) and 2,3-dinor TxB2 (TxM) respectively. […] PGIM and TxM was also assessed in PGHS-1 knockdown (KD) mice. […] Traditional NSAIDS and NSAIDs selective for PGHS-2 inhibit COX activity, not POX activity. Tyr385 in PGHS (ovine PGH-1 numbering) is critical for cyclooxygenase (COX) catalysis, but is uninvolved in peroxidase (POX) activity. PGIM and TxM was also assessed in PGHS-2^Y385F mice, in which the cyclooxygenase, but not the peroxidase (POX) function, of PGHS-2 is inactivated, thereby mimicking the effect of a selective PGHS-2 inhibitor (Yu et al., 2005a, J. Clin. Invest. (Submitted manuscript)).
# [3] = tested on: PGE2 biosynthesis (urinary PGEM); assay: Urinary PGEM by LC/MS/MS; format: in vivo, mouse; conditions: DFU, WT male mice, vs pre-administration value (FIG. 11)
# Protocol: Urinary PGEM was measured by LC/MS/MS as follows: First, 10 ng of hexadeuterated PGEM (9,15-dioxo-11α-hydroxy-2,3,4,5-tetranor-prostan-1,20-dioic-17,17,18,18,19,19-d6 acid; Cayman Chemical Co., Ann Arbor, Mich.) was added as an internal standard to 0.1 ml of mouse urine. Next, 50 μL of 1 g/ml methoxyamine HCl was added, and the sample was mixed and allowed to stand at room temperature for 15 minutes. The sample was then diluted to 1.0 ml with water and loaded on a StrataX solid phase extraction (SPE) cartridge (Phenomenex, Torrance, Calif.). The SPE was eluted with 1.0 mL of 5% acetonitrile in ethyl acetate, dried, dissolved in 200 μL 10% acetonitrile in water, and injected for LC/MS/MS analysis. Transitions monitored were m/z 385→336 for the endogenous PGE-M and 391→342 for the internal standard.
# PGE2 biosynthesis was assessed in mice having inhibited or deleted PGHS-1 or PGHS-2 function using a mass spectrometric assay (FIG. 9) for the major PGE metabolite, 11α-hydroxy-9,15-dioxo-2,3,4,5-tetranor-prostane-1,20-dioic acid (PGEM). […] Thus, unlike PGI2 biosynthesis, both PGHS-1 and PGHS-2 each contribute substantially to PGE2 biosynthesis.
# mice [4] = conditions: mouse, in vivo
# Protocol: (i) Photochemical vascular injury: This model is an adaptation of one previously described method (Yu et al., 2005, J. Clin. Invest. 115:986-95). Briefly, mice were anesthetized with sodium pentobarbital (80 mg/kg, intraperitoneally). The left common carotid artery was isolated and a Doppler flow probe (Model 0.5 VB, Transonic Systems Co., NY) was applied. The probe was connected to a flowmeter (Transonic Model T105) and interpreted with a computerized data acquisition program (Powerlab, AD Instruments, CO). Just before i.v. injection of Rose Bengal (50 mg/kg body weight, Fisher Scientific, NJ), a 1.5-mW green light laser (540 nm) (Melles Griot Inc, Carlsbad, Calif.) was applied to the desired site of injury at a distance of 5 cm from the carotid artery. Blood flow was monitored up to 120 minutes after injection or until stable occlusion occurred. Stable occlusion was defined as a blood flow of 0 ml/min for 3 minutes. To confirm occlusive thrombosis, carotid arterial segments subjected to injury were excised and embedded in paraffin. Sections were then stained with hematoxylin and eosin.
# [5] = biological target: T1, thromboxane receptor (TP) (Mus musculus, UniProt P30987); assay: U46619 induced sudden death; format: in vivo; conditions: PGHS-2 KO and PGHS-2 Y385F mice compared to WT, 0.2 mg/kg intravenous, within 15 min
# T1 construct: they received a rapid intravenous injection of U46619 (0.2 mg/kg in PBS, Cayman Chemical) via the tail vein; from tissue; host or cells: whole animal: WT, PGHS-2 KO and PGHS-2 Y385F mice, in vivo
# T1 sequence (P30987 1-341): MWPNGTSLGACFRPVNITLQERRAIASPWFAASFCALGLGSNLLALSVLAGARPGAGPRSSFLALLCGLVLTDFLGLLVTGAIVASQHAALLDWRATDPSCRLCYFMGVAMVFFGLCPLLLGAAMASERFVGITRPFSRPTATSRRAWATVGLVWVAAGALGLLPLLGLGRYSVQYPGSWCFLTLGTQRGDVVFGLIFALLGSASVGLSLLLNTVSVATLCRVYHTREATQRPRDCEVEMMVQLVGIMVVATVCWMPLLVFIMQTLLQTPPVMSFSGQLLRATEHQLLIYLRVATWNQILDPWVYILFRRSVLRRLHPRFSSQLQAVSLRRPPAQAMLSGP
# Protocol: (iii) U46619 induced sudden death: This model is based on a model established previously (Momi et al., 2000, Eur. J. Pharmacol. 397: 177-85). Briefly, mice (3-4 months old) were anesthetized with sodium pentobarbital. Then they received a rapid intravenous injection of U46619 (0.2 mg/kg in PBS, Cayman Chemical) via the tail vein. Heart rate was monitored for 15 minutes prior to sacrifice.
# mice [6] = assay: Tail cuff blood pressure measurement; format: in vivo, mouse
# Protocol: (i) Tail Cuff measurement: Resting systolic blood pressure was measured in conscious, 3-4 month old mice using a computerized, noninvasive tail-cuff system, BP-2000 Blood Pressure Analysis System™ (Visitech Systems, Inc. Apex, N.C.). […] Mice were adapted to the system for 14 days by taking blood pressure measurements during 25 minute long sessions. The sessions were held once daily between 15:00 and 18:00. After the adaptation period, blood pressure was recorded daily for 3 consecutive days in the same way. Data were collected and analyzed using updated BP 2000 Analysis Software.
# IP (PGI2 receptor) [7] = biological target: T2, IP (PGI2 receptor) (Mus musculus, UniProt P43252); assay: Direct measurement of blood pressure (MAP) after i.v. cicaprost; format: in vivo; conditions: 1 μg/kg intravenously; for Maximal decline in MAP from pretreatment baseline: C57BL/6, anesthetized
# T2 construct: anesthetized WT, IP^+/−, and IP^−/− littermates on C57BL/6 genetic background, following administration of the IP agonist cicaprost; from tissue; host or cells: whole animal: anesthetized WT, IP+/- and IP-/- mice, C57BL/6 background, in vivo
# T2 sequence (P43252 1-412): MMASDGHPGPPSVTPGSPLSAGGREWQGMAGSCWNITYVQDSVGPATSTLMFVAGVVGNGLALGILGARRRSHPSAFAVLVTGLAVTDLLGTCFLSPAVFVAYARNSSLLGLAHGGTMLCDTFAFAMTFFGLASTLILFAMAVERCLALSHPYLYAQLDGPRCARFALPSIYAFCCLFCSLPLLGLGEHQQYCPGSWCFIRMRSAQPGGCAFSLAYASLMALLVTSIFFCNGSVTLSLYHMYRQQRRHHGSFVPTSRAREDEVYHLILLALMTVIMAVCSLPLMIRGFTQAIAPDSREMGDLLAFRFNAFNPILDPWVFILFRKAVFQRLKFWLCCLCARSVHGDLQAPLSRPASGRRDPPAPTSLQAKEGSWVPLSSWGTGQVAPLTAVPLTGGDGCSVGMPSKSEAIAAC
# Protocol: (§1) (iii) Direct measurement of blood pressure: Mice were anesthetized (ketamine 100 mg/kg, acepromazine 5 mg/kg) and placed on a temperature-controlled panel. The right internal jugular vein and left carotid artery were cannulated with PE-10 tubing. The arterial catheter was connected to a Capto SP844 pressure transducer (Capto, Horten, Norway), and blood pressure (BP) was monitored continuously with a Powerlab/8SP system (AD Instruments Inc, Colorado Springs, Colo.), as previously described (Hui et al., 2004, Circulation 110: 3360-6; Rocca et al., 2000, Nat. Med. 6: 219-21). Blood pressure and heart rate were continuously monitored for 20-40 min until stable values were obtained. After the equilibration period and the baseline BP was recorded, mice were injected via the right internal jugular vein with cicaprost (1 μg/kg in 4 ml/kg saline) as a bolus. The same volume of saline was injected before cicaprost administration to exclude volume-mediated BP changes. The BP was continuously recorded until it returned to pretreatment baseline.
# (§2) The cardiovascular consequences of deleting just one copy of the IP on cardiovascular function in vivo was studied. Mean arterial pressure (MAP) was measured directly via carotid artery catheterization in anesthetized WT, IP^+/−, and IP^−/− littermates on C57BL/6 genetic background, following administration of the IP agonist cicaprost (Cica) 1 μg/kg intravenously (FIG. 3). The maximal decline evoked by Cica in MAP was 36±3.5% from pretreatment baseline in WT, 24%±3.3% in IP+/− and 0% in IP−/− littermates(F=42, n=5; P<0.0001). […] A similar effect of IP deletion was seen on the inhibitory effect of 10 nM cicaprost on platelet aggregation induced by collagen 2 μg/ml ex vivo (FIG. 4). […] The impact of IP deletion on the time to thrombotic carotid arterial occlusion, induced by green laser activation of Rose Bengal, which causes free radical catalyzed vascular injury, was also gene-dose dependent (FIG. 5, left panel). The time to occlusion fell from 66.3±5.1 min in WTs to […] in IP^+/− to 29.7±7.6 min in IP^−/− mice (F=6.5, n=9-10, P<0.0055). Inhibition of PGHS-2 by DFU also accelerated thrombogenesis, from 59.4±10.4 min to 33.4±4.3 min (n=7-8, P<0.05; FIG. 5, right panel). Thus, the mean impact of DFU on time to occlusion (56.2% of WT value) was intermediate between that of IP^+/− ([…]) and IP^−/− (45.5%) mice.
# IP (PGI2 receptor) [8] = assay: as above; format: in vivo, mouse; conditions: IP-/- mice, 1 μg/kg intravenously
# Protocol: as §1, §2
# [9] = tested on: platelet aggregation induced by collagen; assay: Whole blood platelet aggregation assay, collagen-induced, ex vivo; format: cell-based, mouse; conditions: 10 nM, collagen 2 μg/ml
# Protocol: 250 μl blood was mixed with 750 μl of sodium chloride at 37° C. Platelet aggregation was performed using a 500 Whole Blood Lumi-Aggregometion System (Chrono-Log Corp, Havertown, Pa.) as previously described ([…] et al., 1983, Thromb. Haemost. 50: 852-6; Booth et al., 1998, Can. J. Physiol. Pharmacol. 76: 811-3; Emery et al., 1995, Arterioscler. Thromb. Vasc. Biol. 15: 748-53). Samples were pretreated with or without 10 nM cicaprost for 1 minute, and aggregation was initiated by addition of 2 μg/ml collagen.
# [10] = 3 month old mice, mixed C57BL/6×129/sv, regular chow
compound,measurement,setting,value
collagen,Circulating platelet count,mice [1],dose-dependent decrese in platelets
"CC1(C)OC(=O)C(c2cccc(F)c2)=C1c1ccc(S(C)(=O)=O)cc1 [DFU, 5,5-dimethyl-3-(3-fluorophenyl)-4-(4-methylsulphonyl)phenyl-2(5H)-furanone]","Urinary 2,3-dinor 6-keto PGF1α (PGIM)",[2],depressed significantly
same,Urinary PGEM,[3],depressed PGEM significantly
same,"Mean impact on time to occlusion, % of WT value",mice [4],56.2%
CCCCC[C@H](O)/C=C/[C@@H]1[C@@H](C/C=C\CCCC(=O)O)[C@H]2CO[C@@H]1C2 [U46619],Frequency of sudden death,[5],augmented
Cc1ccc(-c2cc(C(F)(F)F)nn2-c2ccc(S(N)(=O)=O)cc2)cc1 [celecoxib],Diastolic blood pressure compared to WTs,mice [6]; [10],elevated significantly
same,Systolic blood pressure compared to WTs,mice [6]; [10],elevated significantly
same,Hypertensive effect in PGHS-1 KDs compared to WTs,mice [6]; PGHS-1 KD mice,attenuated
CCC#CC[C@H](C)[C@H](O)C#C[C@@H]1[C@H]2C/C(=C/COCC(=O)O)C[C@H]2C[C@H]1O [cicaprost],Duration of the depressor response,IP (PGI2 receptor) [7]; IP+/- mice,5.3 ± 1.1 min
same,Maximal decline in MAP from pretreatment baseline,IP (PGI2 receptor) [7]; IP+/- mice,24%±3.3
same,Duration of the depressor response,IP (PGI2 receptor) [7]; WT mice,10.8 ± 2.5 min
same,Maximal decline in MAP from pretreatment baseline,IP (PGI2 receptor) [7]; WT mice,36±3.5%
same,Duration of the depressor response,IP (PGI2 receptor) [8],no change in MAP
same,Maximal decline in MAP from pretreatment baseline,"IP (PGI2 receptor) [8]; C57BL/6, anesthetized",0%
same,Inhibition of platelet aggregation,[9]; IP-/- mice,not achieved
same,inhibition at 0.01 µM,"[9]; Mus musculus, Platelet, IP+/- mice, read-out: Inhibition of platelet aggregation, % of the maximal inhibition observed in WTs",86.7%
